Experimental findings from ChEMBL document CHEMBL5316315 (J Med Chem, 2023) are described below.

In data set [1] the target is T1, N-terminal Xaa-Pro-Lys N-methyltransferase 1 (Homo sapiens, UniProt Q9BV86).
T1 sequence (Q9BV86 whole entry): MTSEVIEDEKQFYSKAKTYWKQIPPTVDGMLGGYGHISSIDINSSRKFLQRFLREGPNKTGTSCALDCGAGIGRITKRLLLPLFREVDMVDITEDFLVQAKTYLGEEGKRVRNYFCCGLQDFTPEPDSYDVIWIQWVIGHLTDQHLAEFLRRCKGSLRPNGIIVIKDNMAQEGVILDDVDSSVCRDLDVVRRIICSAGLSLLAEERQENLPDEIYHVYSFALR
Description: Inhibition of N-terminal 6-his tagged TEV fused full length human NTMT1 (1 to 222 residues) expressed in Escherichia coli BL21-Codonplus(DE3)-RIL cells using GPKRIA peptide as substrate preincubated with compound for 10 mins followed by substrate addition and measured immediately by SAHH-coupled fluorescence analysis.

Data set [2] in a line: Toxicity in Balb/c mouse assessed as effect on response at 100 to 200 mg/kg, po administered as single dose for 2 weeks. The format is organism-based. The note with it: in vivo, 336 h, dose 100-200 mg/kg.
A short description of data set [3]: Half-life in CD-1 mouse at 25 mg/kg, po measured upto 24 hrs. The format is ADME, organism-based. The conditions noted are these: in vivo.
The nature of data set [4]: Tmax in CD-1 mouse at 25 mg/kg, po measured upto 24 hrs. The data set is classed as ADME, organism-based. The note with it: in vivo.
Data set [5] can be described thus: Dose normalized AUClast in CD-1 mouse at 25 mg/kg, po measured upto 24 hrs. The data set is classed as ADME, organism-based. The conditions noted are these: in vivo.
The nature of data set [6]: Toxicity in Balb/c mouse assessed as effect on response at 250 to 350 mg/kg, po administered as single dose for 2 weeks. The format is organism-based. The conditions noted are these: in vivo, 336 h, dose 250-350 mg/kg.
Data set [7] can be described thus: Toxicity in Balb/c mouse assessed as effect on bright behaviour at 250 to 350 mg/kg, po administered as single dose for 2 weeks. The data set is classed as organism-based. The conditions noted are these: in vivo, 336 h, dose 250-350 mg/kg.
Data set [8] is described as follows: AUClast in CD-1 mouse at 25 mg/kg, po measured upto 24 hrs. The data set is classed as ADME, organism-based. The conditions noted are these: in vivo. Also on record: time < 24 hrs, dose 25 mg/kg, route po.
Data set [9] can be described thus: Drug concentration in CD-1 mouse plasma at 25 mg/kg, po measured after 4 hrs. The format is ADME, organism-based.
A short description of data set [10]: Toxicity in Balb/c mouse assessed as animal death at 400 mg/kg, po administered as single dose and measured 15 mins post administration. The data set is classed as organism-based. The conditions noted are these: in vivo, 0.25 h.
Data set [11] in a line: Toxicity in Balb/c mouse assessed as effect on body weight loss at 250 to 350 mg/kg, po administered as single dose for 2 weeks. The format is organism-based. The note with it: in vivo, 336 h, dose 250-350 mg/kg.
Data set [12] is described as follows: Toxicity in Balb/c mouse assessed as effect on body weight loss at 100 to 200 mg/kg, po administered as single dose for 2 weeks. The format is organism-based. The conditions noted are these: in vivo, 336 h, dose 100-200 mg/kg.
Data set [13] can be described thus: Toxicity in Balb/c mouse assessed as effect on alert behaviour at 250 to 350 mg/kg, po administered as single dose for 2 weeks. The data set is classed as organism-based. The conditions noted are these: in vivo, 336 h, dose 250-350 mg/kg.
The target in data set [14] is T2, Ceramide glucosyltransferase (Homo sapiens) (UniProt Q16739).
T2 sequence (whole entry): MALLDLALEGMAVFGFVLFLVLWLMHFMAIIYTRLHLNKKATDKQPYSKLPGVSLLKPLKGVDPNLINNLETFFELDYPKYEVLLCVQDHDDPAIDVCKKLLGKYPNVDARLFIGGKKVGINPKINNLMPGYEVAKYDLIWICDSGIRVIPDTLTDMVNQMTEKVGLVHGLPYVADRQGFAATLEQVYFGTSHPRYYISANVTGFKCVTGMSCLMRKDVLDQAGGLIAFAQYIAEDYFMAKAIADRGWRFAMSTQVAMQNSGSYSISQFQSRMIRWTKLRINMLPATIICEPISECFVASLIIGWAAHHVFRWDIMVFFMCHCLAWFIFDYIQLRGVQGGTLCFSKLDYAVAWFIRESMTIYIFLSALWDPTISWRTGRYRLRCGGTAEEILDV
The note with it: HCT-116, dose 30.0 nM, time 52.0 hrs.

Active and inactive are the calls of the source.

As for `CC(C)(NC(=O)O[C@@H]1CN2CCC1CC2)c1csc(-c2cccc(N)c2)n1`, in data set [1], the 50% inhibitory concentration (IC50) is 7.6 µM. Same read-out and setting: as for `CC(C)(NC(=O)O[C@@H]1CN2CCC1CC2)c1csc(-c2cccnc2)n1`, the figure is 2.8 µM; as for `CC(C)(NC(=O)O[C@@H]1CN2CCC1CC2)c1csc(-c2ccsc2)n1`, 9.1 µM. On to `CC(C)(NC(=O)O[C@@H]1CN2CCC1CC2)c1csc(-c2ccc(F)nc2)n1`, for which, in [1], the IC50 came out at 1.5 µM. On to `CCCN1CCC[C@H](OC(=O)NC(C)(C)c2csc(-c3ccc(F)cc3)n2)C1`, for which the IC50 in [1] was found to be 18 µM.

For `CC(C)(NC(=O)O[C@@H]1CN2CCC1CC2)c1csc(-c2ccc(F)cc2O)n1`, the IC50 in data set [1] worked out at 0.3 µM. Still for that read-out and setting: for `CC(C)(NC(=O)Oc1cccnc1)c1csc(-c2ccc(F)cc2)n1` the value was above 100 µM; for `CC(C)(NC(=O)O[C@@H]1CN2CCC1CC2)c1csc(-c2ccco2)n1`, 21 µM. On the same count and under the same terms, as for `CC(C)c1nc(C(C)(C)NC(=O)O[C@@H]2CN3CCC2CC3)cs1`, the figure is above 100 µM; as for `CN1CCC[C@H](OC(=O)NC(C)(C)c2csc(-c3ccc(F)cc3)n2)C1`, 25 µM. Turning to `CC(C)(NC(=O)O[C@@H]1CN2CCC1CC2)c1csc(-c2ccc(F)c(O)c2)n1`, the Activity entry in data set [2] is given as “Non-Toxic”; in data set [6] it was “Non-Toxic”; in [7], “Non-Toxic”; in [10], “Toxic”; in data set [11] it was “Non-Toxic”; in data set [12] it was “Non-Toxic”. Further, the Activity result in data set [13] is recorded as “Non-Toxic”. The molecule also gave a half-life in data set [3] of 2.63 h. Moreover, in data set [4], the time of peak concentration (Tmax) was found to be 0.25 h. The molecule further gave an AUClast/dose in data set [5] of 6.27 ng·h/mL. The exposure AUC(0-t) at 24 h in data set [8] is 157 ng·h/mL. The molecule further showed a concentration at 4 h in data set [9] above 18.8 ng/mL. In the case of `CC(C)(NC(=O)O[C@H]1CCCNC1)c1csc(-c2ccc(F)cc2)n1`, the IC50 in data set [1] is above 100 µM. For `CC(C)(NC(=O)O[C@@H]1CN2CCC1CC2)c1csc(-c2ccccc2O)n1`, the IC50 in data set [1] was 4.6 µM.

`CC(C)(NC(=O)O[C@@H]1CN2CCC1CC2)c1csc(-c2cccc(O)c2)n1`: in data set [1], the IC50 worked out at 0.56 µM. `CC(C)(NC(=O)O[C@@H]1CN2CCC1CC2)c1csc(-c2ccc(F)cc2)n1`: the inhibition entry in data set [14] was “Active”. On to `O=C(NCc1csc(-c2ccc(F)cc2)n1)O[C@@H]1CN2CCC1CC2`, for which, in data set [1], the IC50 was above 100 µM. Same read-out and setting: as for `CC(C)(NC(=O)O[C@@H]1CN2CCC1CC2)c1csc(-c2ccc(O)cc2)n1`, the figure is 25 µM; as for `CC(C)(NC(=O)OCCN1CCCCC1)c1csc(-c2ccc(F)cc2)n1`, above 100 µM; as for `CC(C)(NC(=O)O[C@@H]1CN2CCC1CC2)c1csc(-c2ccccc2N)n1`, 7.1 µM.

Regarding `CC(C)(NC(=O)O[C@@H]1CN2CCC1CC2)c1csc(-c2cccc([N+](=O)[O-])c2)n1`, in [1], the IC50 worked out at 64 µM. Still for that read-out and setting: for `CC(C)(NC(=O)O[C@@H]1CN2CCC1CC2)c1csc(-c2cccs2)n1` the value was 2.4 µM; for `CNc1nc(C(C)(C)NC(=O)O[C@@H]2CN3CCC2CC3)cs1`, 50 µM. Still for that read-out and setting: as for `CC(C)(NC(=O)O[C@@H]1CN2CCC1CC2)c1csc(-c2ccoc2)n1`, the figure is 91 µM; as for `CC(C)(NC(=O)O[C@@H]1CN2CCC1CC2)c1csc(-c2cccc3ccccc23)n1`, 44 µM. With `CC(C)(C(=O)N[C@@H]1CN2CCC1CC2)c1csc(-c2ccc(F)cc2)n1`, the 50% inhibitory concentration (IC50) in data set [1] was above 100 µM. Turning to `CC(C)(NC(=O)O[C@@H]1CN2CCC1CC2)c1csc(-c2cncnc2)n1`, the concentration for half-maximal inhibition (IC50) in data set [1] is above 100 µM. The same measure, in the same setting: as for `CC(C)(NC(=O)O[C@@H]1CN2CCC1CC2)c1csc(-c2ccc(C(=O)O)cc2)n1`, the figure is above 100 µM; as for `CC(C)(NC(=O)N[C@@H]1CN2CCC1CC2)c1csc(-c2ccc(F)cc2)n1`, 40 µM. On the same count and under the same terms, for `CC(C)(NC(=O)O[C@@H]1CN2CCC1CC2)c1csc(-c2ccc(N)cc2)n1` the value was 7.5 µM; for `CC(C)(NC(=O)O[C@@H]1CN2CCC1CC2)c1csc(I)n1`, 46 µM.

As for `COc1ccc(-c2nc(C(C)(C)NC(=O)O[C@@H]3CN4CCC3CC4)cs2)cc1`, the IC50 in data set [1] is 54 µM. The same measure, in the same setting: as for `CC(C)(NC(=O)O[C@@H]1CN2CCC1CC2)c1csc(-c2ccccn2)n1`, the figure is 3.7 µM.

A word on the IC50: it is the concentration needed to halve the response being measured. By half-life is commonly meant the time needed for the level to fall by half in the phase considered. Low values mean rapid decline, high ones slow decline. The term Tmax denotes the time at which the peak concentration occurs. The AUC(0-t) is exposure summed from dosing to a finite time, without extrapolation to infinity.
